We go through 7 compounds from paper PMC5298231, “The Malaria Parasite's Lactate Transporter PfFNT Is the Target of Antiplasmodial Compounds Identified in Whole Cell Phenotypic Screens” (PLoS Pathogens, 2017).

The assay has as its system erythrocytes infected with 3D7 trophozoites. The format is cell-based, Plasmodium falciparum. Particulars: sheet Ratio; for Ratio of metabolite abundance, Exp1_1hr: Exp1, 1hr; for Ratio of metabolite abundance, Exp1_3hr: Exp1, 3hr; for Ratio of metabolite abundance, Exp1_6hr: Exp1, 6hr; for Ratio of metabolite abundance, Exp2_1hr: Exp2, 1hr; for Ratio of metabolite abundance, Exp2_3hr: Exp2, 3hr; for Ratio of metabolite abundance, Exp2_6hr: Exp2, 6hr; for Ratio of metabolite abundance, Exp3_1hr: Exp3, 1hr; for Ratio of metabolite abundance, Exp3_3hr: Exp3, 3hr; for Ratio of metabolite abundance, Exp3_6hr: Exp3, 6hr.

Peptide text beside a SMILES is read from it.

For `CC(C)[C@H](NC(=O)[C@@H]1CCCN1)C(=O)N[C@@H](CC(N)=O)C(=O)N[C@@H](Cc1ccccc1)C(=O)O` [PVNF] (H-PVNF-OH), the “Ratio of metabolite abundance, Exp1_1hr” value worked out at 0.6556; the “Ratio of metabolite abundance, Exp1_3hr” value stood at 0.3908; the “Ratio of metabolite abundance, Exp1_6hr” value is given as 1.343; the “Ratio of metabolite abundance, Exp2_1hr” value is 0.8248. Further, the “Ratio of metabolite abundance, Exp2_3hr” value was found to be 0.5795; the “Ratio of metabolite abundance, Exp2_6hr” value is 1.295; the “Ratio of metabolite abundance, Exp3_1hr” value came out at 0.9151; the “Ratio of metabolite abundance, Exp3_3hr” value was 0.7449. For the same compound, the “Ratio of metabolite abundance, Exp3_6hr” value was found to be 2.085.

Turning to `CC(C)[C@H](NC(=O)[C@@H]1CCCN1)C(=O)N[C@@H](CCC(N)=O)C(=O)N[C@@H](C)C(=O)O` [PVQA] (H-PVQA-OH), the “Ratio of metabolite abundance, Exp1_1hr” value turned out to be 0.5661; the “Ratio of metabolite abundance, Exp1_3hr” value turned out to be 0.3168; the “Ratio of metabolite abundance, Exp1_6hr” value was 0.8691; the “Ratio of metabolite abundance, Exp2_1hr” value is 0.7152. Also, the “Ratio of metabolite abundance, Exp2_3hr” value was found to be 0.5356; the “Ratio of metabolite abundance, Exp2_6hr” value was determined as 0.8856; the “Ratio of metabolite abundance, Exp3_1hr” value was 0.5318; the “Ratio of metabolite abundance, Exp3_3hr” value was determined as 0.3152. Moreover, the “Ratio of metabolite abundance, Exp3_6hr” value is 1.03.

Consider `CC(C)[C@H](NC(=O)[C@@H]1CCCN1)C(=O)N[C@@H](CCC(N)=O)C(=O)O` [PVQ] (H-Pro-Val-Gln-OH), for which the “Ratio of metabolite abundance, Exp1_1hr” value was found to be 1.621; the “Ratio of metabolite abundance, Exp1_3hr” value is recorded as 0.8912; the “Ratio of metabolite abundance, Exp1_6hr” value was 2.731; the “Ratio of metabolite abundance, Exp2_1hr” value came out at 1.963. Besides, the “Ratio of metabolite abundance, Exp2_3hr” value is listed as 1.4303; the “Ratio of metabolite abundance, Exp2_6hr” value was found to be 3.535; the “Ratio of metabolite abundance, Exp3_1hr” value was 1.9381; the “Ratio of metabolite abundance, Exp3_3hr” value turned out to be 1.515. Besides, the “Ratio of metabolite abundance, Exp3_6hr” value came out at 2.354.

Regarding `O=C(O)C1CCCCN1` (stereo not drawn) [Pipecolate], the “Ratio of metabolite abundance, Exp1_1hr” value is 1.3778; the “Ratio of metabolite abundance, Exp1_3hr” value was found to be 1.045; the “Ratio of metabolite abundance, Exp1_6hr” value is reported as 1.52; the “Ratio of metabolite abundance, Exp2_1hr” value is 1.38. The “Ratio of metabolite abundance, Exp2_3hr” value came out at 1.052; the “Ratio of metabolite abundance, Exp2_6hr” value is 2.481; the “Ratio of metabolite abundance, Exp3_1hr” value was found to be 1.352; the “Ratio of metabolite abundance, Exp3_3hr” value was 1.13. For the same compound, the “Ratio of metabolite abundance, Exp3_6hr” value is reported as 2.281.

`O=C[C@H](O)[C@H](O)[C@H](O)COP(=O)(O)O` [Ribose-5-phosphate]: the “Ratio of metabolite abundance, Exp1_1hr” value amounted to 2.775; the “Ratio of metabolite abundance, Exp1_3hr” value is on record as 3.2124; the “Ratio of metabolite abundance, Exp1_6hr” value is on record as 2.288; the “Ratio of metabolite abundance, Exp2_1hr” value came out at 1.429. Also, the “Ratio of metabolite abundance, Exp2_3hr” value was 1.2203; the “Ratio of metabolite abundance, Exp2_6hr” value was 1.178; the “Ratio of metabolite abundance, Exp3_1hr” value was 1.678; the “Ratio of metabolite abundance, Exp3_3hr” value amounted to 1.594. Also, the “Ratio of metabolite abundance, Exp3_6hr” value is 1.155.

With `Nc1ncnc2c1ncn2[C@@H]1O[C@H](CSCC[C@H](N)C(=O)O)[C@@H](O)[C@H]1O` [S-Adenosyl-L-homocysteine], the “Ratio of metabolite abundance, Exp1_1hr” value came out at 0.9683; the “Ratio of metabolite abundance, Exp1_3hr” value was 0.7021; the “Ratio of metabolite abundance, Exp1_6hr” value came out at 0.8395; the “Ratio of metabolite abundance, Exp2_1hr” value turned out to be 0.9429. The “Ratio of metabolite abundance, Exp2_3hr” value turned out to be 0.8753; the “Ratio of metabolite abundance, Exp2_6hr” value came to 1.175; the “Ratio of metabolite abundance, Exp3_1hr” value was 0.839; the “Ratio of metabolite abundance, Exp3_3hr” value is recorded as 0.8468. Further, the “Ratio of metabolite abundance, Exp3_6hr” value was 0.8042.

For the compound `CC(C)C[C@H](NC(=O)CNC(=O)[C@H](CC(=O)O)NC(=O)[C@@H](N)CO)C(=O)N[C@@H](C)C(=O)O` [SDGLA] (H-SDGLA-OH), the “Ratio of metabolite abundance, Exp1_1hr” value was 0.8703; the “Ratio of metabolite abundance, Exp1_3hr” value is listed as 0.6348; the “Ratio of metabolite abundance, Exp1_6hr” value amounted to 0.4701; the “Ratio of metabolite abundance, Exp2_1hr” value stood at 0.9687. The “Ratio of metabolite abundance, Exp2_3hr” value is 0.9448; the “Ratio of metabolite abundance, Exp2_6hr” value was found to be 0.8041; the “Ratio of metabolite abundance, Exp3_1hr” value was 0.872; the “Ratio of metabolite abundance, Exp3_3hr” value is listed as 0.7497. In addition, the “Ratio of metabolite abundance, Exp3_6hr” value is 0.5099.
